Results reported in US20230295096A1, “PYRAZOLE CARBOXAMIDE COMPOUNDS FOR TREATMENT OF HBV” (ASSEMBLY BIOSCIENCES, INC., priority 2020, published 2023).
Where two headings read alike, the source gives them in different places.

Tested on: HBV
Experiment: Viral load production from HepAD38 cells, qPCR of the HBV core sequence in supernatant
Type: cell-based
Details: HepAD38 cells, 5 days, HBV DNA in supernatant by qPCR, Table 1 ranges, read-out: Activity (viral load lowering EC50)
Procedure, shortened: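 EC50 and CC50 come from four-parameter logistic fits of supernatant HBV core DNA (TaqMan qPCR, DNA standards, compared with DMSO wells) and of CellTiter-Glo luminescence.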

[1] = Hepatitis B virus, HePAD38, 120 h

Row | Compound | EC50 [1] [nM] | EC50 [nM]
1 | Cc1cc(C2(O)CC3CC(c4nn(C)c(N)c4C(=O)Nc4ccc(F)c(Cl)c4)CC3C2)c(F)cn1 (centres unmarked) [Example 154] | < 10 | 
2 | Cn1nc(C2CC3CC(O)(c4c(F)cncc4F)CC3C2)c(C(=O)Nc2ccc(F)c(Cl)c2)c1N (centres unmarked) [Example 174] | < 10 | 
3 | 3-Amino-N-(3-chloro-4-fluorophenyl)-5-(5-hydroxy-5-(1-methyl-1H-imidazol-4-yl)octahydropentalen-2-yl)-2λ^2-pyrazole-4-carboxamide [Example 20] |  | < 10
4 | C=CCC1(O)CC2CC(c3nn(C)c(N)c3C(=O)Nc3ccc(F)c(Cl)c3)CC2C1 (centres unmarked) [Example 2, 3-(5-Allyl-5-hydroxyoctahydropentalen-2-yl)-5-amino-N-(3-chloro-4-fluorophenyl)-1-methyl-1H-pyrazole-4-carboxamide] | < 10 | 
5 | CCn1nc(N)cc1C1(O)CC2CC(c3nn(C)c(N)c3C(=O)Nc3ccc(F)c(Cl)c3)CC2C1 (centres unmarked) [Example 210] | < 10 | 
6 | CC(=O)NCC1CC2CC(c3nn(C)c(N)c3C(=O)Nc3ccc(F)c(Cl)c3)CC2C1 (centres unmarked) [Example 54, 3-(5-(Acetamidomethyl)octahydropentalen-2-yl)-5-amino-N-(3-chloro-4-fluorophenyl)-1-methyl-1H-pyrazole-4-carboxamide] | < 10 | 
7 | Cn1nc(C2CC3CC(O)(c4ncccn4)CC3C2)c(C(=O)Nc2ccc(F)c(Cl)c2)c1N (centres unmarked) [Example 175] | < 10 | 
8 | Cn1nc(C2CC3CC(O)(CNc4ncc(F)cn4)CC3C2)c(C(=O)Nc2ccc(F)c(Cl)c2)c1N (centres unmarked) [Example 201] | < 10 | 
9 | Cn1nc(C2CC3CC(O)(c4ccccn4)CC3C2)c(C(=O)Nc2ccc(F)c(Cl)c2)c1N (centres unmarked) [Example 14, 5-Amino-N-(3-chloro-4-fluorophenyl)-3-(5-hydroxy-5-(pyridin-2-yl)octahydropentalen-2-yl)-1-methyl-1H-pyrazole-4-carboxamide] | < 10 | 
10 | Cn1cc(C(F)(F)F)c(C2(O)CC3CC(c4nn(C)c(N)c4C(=O)Nc4ccc(F)c(Cl)c4)CC3C2)n1 (centres unmarked) [Example 219] | < 10 | 
11 | COCCOCCOCCOCCOCCOCCOC(=O)OCn1cc(C2(O)CC3CC(c4nn(C)c(N)c4C(=O)Nc4ccc(F)c(Cl)c4)CC3C2)c(C(F)(F)F)n1 (centres unmarked) [Example 228] | < 10 | 
12 | Cn1nc(C2CC3CC(O)(c4c(F)cnn4C)CC3C2)c(C(=O)Nc2ccc(F)c(Cl)c2)c1N (centres unmarked) [Example 209] | < 10 | 
13 | Cn1nc(C2CC3CC(O)(C(F)(F)C(F)(F)F)CC3C2)c(C(=O)Nc2ccc(F)c(Cl)c2)c1N (centres unmarked) [Example 32, 5-Amino-N-(3-chloro-4-fluorophenyl)-3-(5-hydroxy-5-(perfluoroethyl)octahydropentalen-2-yl)-1-methyl-1H-pyrazole-4-carboxamide] | 10 to 50 | 
14 | Cn1nc(C2CC3CC(O)(C(F)(F)F)CC3C2)c(C(=O)Nc2ccc(F)c(Cl)c2)c1N (centres unmarked) [Example 31, 5-Amino-N-(3-chloro-4-fluorophenyl)-3-(5-hydroxy-5-(trifluoromethyl)octahydropentalen-2-yl)-1-methyl-1H-pyrazole-4-carboxamide] | 10 to 50 | 
15 | Cn1nc(C2CC3CC(CNS(=O)(=O)C4CC4)CC3C2)c(C(=O)Nc2ccc(F)c(Cl)c2)c1N (centres unmarked) [Example 94, 5-Amino-N-(3-chloro-4-fluorophenyl)-3-(5-(cyclopropanesulfonamidomethyl)octahydropentalen-2-yl)-1-methyl-1H-pyrazole-4-carboxamide] | < 10 | 
16 | Cc1ccc([S+]([O-])C(F)(F)C2(O)CC3CC(c4nn(C)c(N)c4C(=O)Nc4ccc(F)c(Cl)c4)CC3C2)cc1 (centres unmarked) [Example 36, 5-Amino-N-(3-chloro-4-fluorophenyl)-3-(5-(difluoro(p-tolylsulfinyl)methyl)-5-hydroxyoctahydropentalen-2-yl)-1-methyl-1H-pyrazole-4-carboxamide] | 10 to 50 | 
17 | Cn1nc(C2CC3CC(O)(c4c(Cl)c(N)nn4C)CC3C2)c(C(=O)Nc2ccc(F)c(Cl)c2)c1N (centres unmarked) [Example 221] | < 10 | 
18 | Cn1nc(C2CC3CN(C(=O)c4cnc(C(F)(F)F)s4)CC3C2)c(C(=O)Nc2ccc(F)c(Cl)c2)c1N (centres unmarked) [Example 120, 5-Amino-N-(3-chloro-4-fluorophenyl)-1-methyl-3-(2-(2-(trifluoromethyl)thiazole-5-carbonyl)octahydrocyclopenta[c]pyrrol-5-yl)-1H-pyrazole-4-carboxamide] | 50 to 500 | 
19 | Cn1nc(C2CC3CC(O)(C(F)(F)S(=O)(=O)c4ccccc4)CC3C2)c(C(=O)Nc2ccc(F)c(Cl)c2)c1N (centres unmarked) [Example 33, 5-Amino-N-(3-chloro-4-fluorophenyl)-3-(5-(difluoro(phenylsulfonyl)methyl)-5-hydroxyoctahydropentalen-2-yl)-1-methyl-1H-pyrazole-4-carboxamide] | 10 to 50 | 
20 | Cn1nc(C2CC3CN(c4ncc(C(F)(F)F)cn4)CC3C2)c(C(=O)Nc2ccc(F)c(Cl)c2)c1N (centres unmarked) [Example 133, 5-Amino-N-(3-chloro-4-fluorophenyl)-1-methyl-3-(2-(5-(trifluoromethyl)pyrimidin-2-yl)octahydrocyclopenta[c]pyrrol-5-yl)-1H-pyrazole-4-carboxamide] | 50 to 500 | 
21 | CC(C)n1nc([N+](=O)[O-])cc1C1(O)CC2CC(c3nn(C)c(N)c3C(=O)Nc3ccc(F)c(Cl)c3)CC2C1 (centres unmarked) [Example 206] | < 10 | 
22 | Cn1nc(C2CC3CC(O)(CNc4ncc(F)cn4)CC3C2)c(C(=O)Nc2ccc(F)c(Cl)c2)c1N (centres unmarked) [Example 213] |  | 10 to 50
23 | Cn1nncc1C1(O)CC2CC(c3nn(C)c(N)c3C(=O)Nc3ccc(F)c(Cl)c3)CC2C1 (centres unmarked) [Example 25, 5-Amino-N-(3-chloro-4-fluorophenyl)-3-(5-hydroxy-5-(1-methyl-1H-1,2,3-triazol-5-yl)octahydropentalen-2-yl)-1-methyl-1H-pyrazole-4-carboxamide] | < 10 | 
24 | COc1ccc(C2(O)CC3CC(c4nn(C)c(N)c4C(=O)Nc4ccc(F)c(Cl)c4)CC3C2)cc1 (centres unmarked) [Example 5, 5-Amino-N-(3-chloro-4-fluorophenyl)-3-(5-hydroxy-5-(4-methoxyphenyl)octahydropentalen-2-yl)-1-methyl-1H-pyrazole-4-carboxamide] | < 10 | 
25 | Cn1nc(C2CC3C=C(c4cc(N)nn4C4CC4)CC3C2)c(C(=O)Nc2ccc(F)c(Cl)c2)c1N (centres unmarked) [Example 216] | 10 to 50 | 
26 | Cn1nc(C2CC3CC(O)(CNc4ncc(C(F)F)cn4)CC3C2)c(C(=O)Nc2ccc(F)c(Cl)c2)c1N (single isomer, unassigned) [Example 202B] |  | 50 to 500
27 | Cn1nc(C2CC3CC(CNC(=O)CCCCCNC(=O)OC(C)(C)C)CC3C2)c(C(=O)Nc2ccc(F)c(Cl)c2)c1N (centres unmarked) [Example 73, tert-Butyl (6-(((5-(5-amino-4-((3-chloro-4-fluorophenyl)carbamoyl)-1-methyl-1H-pyrazol-3-yl)octahydropentalen-2-yl)methyl)amino)-6-oxohexyl)carbamate] | 10 to 50 | 
28 | Cn1nc(C2CC3CC(CNC(=O)C4(C)CCC4)CC3C2)c(C(=O)Nc2ccc(F)c(Cl)c2)c1N (centres unmarked) [Example 68, 5-Amino-N-(3-chloro-4-fluorophenyl)-1-methyl-3-(5-((1-methylcyclobutane-1-carboxamido)methyl)octahydropentalen-2-yl)-1H-pyrazole-4-carboxamide] | < 10 | 
29 | C#CCCC(=O)NCC1CC2CC(c3nn(C)c(N)c3C(=O)Nc3ccc(F)c(Cl)c3)CC2C1 (centres unmarked) [Example 52, 5-Amino-N-(3-chloro-4-fluorophenyl)-1-methyl-3-(5-(pent-4-ynamidomethyl)octahydropentalen-2-yl)-1H-pyrazole-4-carboxamide] | < 10 | 
